Experimental data from paper PMC9006954, “Computer-Based Immunoinformatic Analysis to Predict Candidate T-Cell Epitopes for SARS-CoV-2 Vaccine Design” (Frontiers in Immunology, 2022).
Where no end group is shown, it is not given here.

Target: T1, HLA-A*11:01 protein (Homo sapiens, UniProt P04439, A114D/D185E/E176A/F33Y/L180Q/S129P/T187R)
T1 construct: biotin (biotinylated)
Assay: Bio-Layer Interferometry (BLI) affinity test, Octet R8
Settings: Octet R8, SSA sensors, peptides 100-3.125 µM in PBST (PBS+0.02%Tween20+1% DMSO), balance, binding, dissociation 60 s each

Sequence	Kd [µM]	KD
FSTFKCYGV [reference compound]	29.1	–
GVSPTKLNDL [reference compound]	656	–
KCYGVSPTK [reference compound]	23.5	–
SQCVNLTTR [reference compound]	–	Non-binding
